Earlier results, collected in patent publication US20210186070A1, “STEVIA EXTRACT CONTAINING SELECTED STEVIOL GLYCOSIDES AS FLAVOR, SALTY AND SWEETNESS PROFILE MODIFIER” (PureCircle USA Inc., priority 2013, published 2021).

C=C1C[C@@]23CC[C@H]4[C@@](C)(CCC[C@@]4(C)C(=O)O[C@@H]4O[C@H](CO)[C@@H](O)[C@H](O)[C@H]4O)[C@@H]2CC[C@]1(O[C@@H]1O[C@H](CO)[C@@H](O)[C@H](O[C@@H]2O[C@H](CO)[C@@H](O)[C@H](O)[C@H]2O)[C@H]1O[C@@H]1O[C@H](CO)[C@@H](O)[C@H](O)[C@H]1O)C3 [Rebaudioside A]
sweetness potency, times higher than sucrose: around 300 times
